Results on 4 substances are retold here after patent US20210349108A1, “IMMUNOASSAY FOR MEASURING C-PEPTIDE” (Roche Diabetes Care GmbH, priority 2018, published 2021).

A value given as a limit tells only on which side of the number the result lay.

Experiment [1] concerns anti-C-peptide antibody PEP001. Description: QCM displacement immunoassay, ligand immobilized on Au-surface, antibody PEP001. The experiment is classed as binding. The following applies: for QCM frequency change on addition of sample containing WT-C-peptide (displacement of the ligand, release of antibody-C-peptide-complex): streptavidin/ligand/PEP001 assembly on Au-surface. An excerpt:
An Au-substrate is covered with a self-assembled monolayer (SAM). This self-assembled monolayer protects the surface from unspecific adsorption of peptides or proteins. Part of the SAM molecules is coupled with biotin, which is exposed on the surface. To this surface the biotin binding protein streptavidin is applied and bound by the biotin moieties. Since streptavidin has a plurality of binding sides for biotin, a ligand labeled with biotin can be bound to the streptavidin. Finally, anti-C-peptide antibody PEP001 is added, which binds to the ligand forming an immobilized antibody-ligand-complex, which is schematically depicted in FIG. 2. The stepwise build-up of an immobilized antibody-ligand-complex on the Au-surface can be monitored using a Quartz Crystal Microbalance (QCM). […] Referring to FIG. 3, attachment of streptavidin and Mut6-C-peptide results in a frequency shift of about −20 Hz. The binding of antibody PEP001 to the ligand Mut6-C-peptide results in a frequency shift of about >−50 Hz.
Addition of a sample containing C-peptide results in displacement of the ligand by wild type C-peptide and release of a C-peptide-antibody-complex as schematically shown in FIG. 2.
A quantitative determination of the amount of C-peptide within a sample can be achieved by calibrating the assay using solutions having known C-peptide concentrations. The amount of frequency shift observed for a sample indicates the quantitative amount of C-peptide being present within that sample.
An immunoassay as described in Example 1 was provided except that Mut3-C-peptide, Mut2-C-peptide or Mut5-C-peptide were used as ligand.
As described in Example 1, a SAM/biotin/streptavidin/biotin-ligand/antibody-complex is immobilized on an Au-surface. In this Example the ligand was C-peptide mutant B10-25_Mut3, the antibody was PEP001.
Immobilization of a ligand to a surface can also be performed using a linker (instead of a self-assembling monolayer). A suitable linker is for example a cysteine linker. In this configuration immobilization of an antibody via an antibody-ligand-complex to the surface can be detected by measuring impedance. A ligand having the sequence N-[…]-C(SEQ ID NO:7) was directly immobilized on an Au-surface. Additionally, 6-ferrocenyl-1-hexanethiol was bound to the Au surface for enhanced impedance measurement. Unspecific protein binding to the surface was avoided by incubation with a polyethylene glycol (ML-PEG) and bovine serum albumin (BSA).

Experiment [2] concerns anti-C-peptide antibody CPT-3-F11. Description: QCM displacement immunoassay, ligand immobilized on Au-surface, antibody CPT-3-F11. Type of experiment: binding.

Regarding “N-VELGGGPGAGSLAPLA-C (variant C-peptide Mut6) [Mut6-C-peptide, C-peptide variant AA10-25; Q(22)to A]”, the “frequency shift on binding of antibody PEP001 to the ligand” value in experiment [1] (QCM, biotin-labeled ligand on SAM/biotin/streptavidin Au-surface, negative shift = mass increase) is given as over −50 Hz. Further, the “QCM frequency change on addition of sample containing WT-C-peptide (displacement of the ligand, release of antibody-C-peptide-complex)” value in experiment [1] (QCM) was “observable positive frequency shift”.
Consider “N-VELGGGPGAGSIQPLA-C (variant C-peptide Mut3) [Mut3-C-peptide, C-peptide variant AA10-25; L(21)to I]”, for which, in experiment [1] (QCM), the “QCM frequency change on addition of sample containing WT-C-peptide (displacement of the ligand, release of antibody-C-peptide-complex)” value is given as “considerable frequency increase”. The “QCM frequency change on adding WT-C-peptide (release of antibody-WT-C-peptide-complex)” value in experiment [1] (continuous assay, 500 ng/ml WT-C-peptide, antibody PEP001) was “positive frequency shift”.
On to “N-CGSGSGSGS-VELGGGPGAGSLAPLA-C (CGSGSGSGSVELGGGPGAGSLAPLA; variant C-peptide Mut6-Cys) [SEQ ID NO:7, AA10-25; Q(22) to A and including a cysteine linker]”, for which the “QCM frequency change on addition of PEP001 antibody” value in experiment [1] (ligand directly immobilized on Au-surface via cysteine linker) is given as “considerable negative shift of the frequency”. In addition, the “effect of addition of WT-C-peptide on bound antibody” value in experiment [1] (ligand directly immobilized on Au-surface via cysteine linker, QCM) is recorded as “release of the bound antibody”.
Take “N-GQVECGGGPG-C (variant C-peptide Mut18) [Mut18-C-peptide, C-peptide variant AA8-17; L(12)to C]”: the “QCM frequency change on addition of sample containing WT-C-peptide (displacement of the ligand)” value in experiment [2] (antibody CPT-3-F11) is on record as “considerable frequency increase”. In experiment [2] (streptavidin/ligand assembly on Au-surface), the “frequency shift on addition of anti-C-peptide antibody CPT-3-F11” value is given as about −30 Hz.
